Experimental data published in patent US20110065675A1, “AZO DYE RELATED SMALL MOLECULE MODULATORS OF PROTEIN-PROTEIN INTERACTIONS” (University of Miami, priority 2008, published 2011).
pIC50: −log10 of the molar value. Like-named read-outs stand apart in the source and are kept apart here.

Experiments:
[1] = target: T1, mouse CD40/CD154 (mCD40:mCD154) (Mus musculus, UniProt P27548); assay: Murine CD40/CD154 binding inhibition assay; settings: for pIC50: cell-free binding, read-out: Mouse CD40/CD154 IC50
T1 construct: (FLAG-tagged) mCD154 (recombinant mouse CD40L, soluble, Alexis Biochemicals); purchased R&D Systems (mCD40/Fc); Alexis Biochemicals (mCD154)
T1 sequence (P27548 112-260 limits assumed): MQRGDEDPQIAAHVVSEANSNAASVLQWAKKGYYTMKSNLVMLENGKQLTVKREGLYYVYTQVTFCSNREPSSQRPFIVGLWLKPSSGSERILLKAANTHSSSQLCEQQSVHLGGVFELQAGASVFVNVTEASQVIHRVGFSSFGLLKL
Protocol: Compounds of interest were also tested in a murine (mouse) model similar to the human one with murine CD40 and CD154 replacing the corresponding human proteins. This serves as additional confirmation of the in vitro inhibitory potential of these compounds, and it was considered important because mouse models are likely to be used as the first in vivo tests. […] The experimental setup used was similar to the one described above, but using mCD40 (recombinant mouse CD40/TNFRSF5/Fc Chimera, soluble, R&D Systems) and (FLAG-tagged) mCD154 (recombinant mouse CD40L, soluble, Alexis Biochemicals). This time, however, a higher concentration of CD154 ligand had to be employed to obtain adequate signals, and after a number of calibration tests, mCD40 coating at 0.3125 μg/mL with mCD154 (mCD40L) at 1.1212 μg/mL range was selected to be used to screen the inhibiting activity of various compounds.
The experiments confirmed that the murine anti-CD154 monoclonal antibody (Taconic, MR1) was active in this system at the expected concentration (˜1 nM range), the human antibody was not, and vice versa, the human mAb was active in the human system, but not in the mouse system. The mouse system provided a similar range of activity with some (up to approximately five-fold) changes in activities compared to that seen in the human system (FIG. 2) (Table 1).

human CD40/CD154 = target: T2, human CD40/CD154 (Homo sapiens, UniProt P29965); assay: Human CD40/CD154 binding inhibition assay (cell-free, plate-based); settings: for pIC50: read-out: Human CD40/CD154 IC50; for Human CD40/CD154 log IC50: log of IC50, cell-free binding
T2 construct: CD154 (soluble human, FLAG-tagged, recombinant from Alexis Biochemicals; MW=18 kDa); purchased Alexis Biochemicals
T2 sequence (P29965 113-261 limits assumed): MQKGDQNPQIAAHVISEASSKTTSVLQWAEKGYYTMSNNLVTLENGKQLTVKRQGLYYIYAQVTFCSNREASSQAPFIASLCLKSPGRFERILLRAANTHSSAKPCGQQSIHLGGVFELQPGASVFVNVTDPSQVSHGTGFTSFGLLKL
Protocol: A 96-well plate-based cell-free in vitro binding inhibition assay, which is a modification of an assay described in U.S. Pat. No. 7,173,046, incorporated by reference in its entirety, has been developed and used for activity screening. Briefly, CD40 is coated at a preselected concentration, and binding of (FLAG-tagged) CD154 is measured by reacting with secondary antibody and using TMB liquid substrate system as a substrate for horseradish peroxidase for reading at 450 nm. The detailed procedure is as follows: Microtiter plates (Nunc F MaxiSorp) were coated with […] of CD40: Fc (human:Fc human, recombinant from Alexis Biochemicals; MW=54 kDa) diluted in PBS pH 7.2 at a preselected concentration of 0.3125 μg/mL. Plates were covered with plate sealer and stored overnight at 4° C. The liquid was removed from the plates and blotted dry. Plates were blocked by washing once with approx. 300 μL/well of Blocking Solution (PBS pH 7.2, 0.05% Tween-20, 1% BSA) and incubated with the same solution for 1 hour at room temperature (RT) or at 4° C. overnight. Coated plates were washed three times with Washing Solution (PBS pH 7.4, 0.05% Tween-20) and blotted dry. A preselected dilution of CD154 (soluble human, FLAG-tagged, recombinant from Alexis Biochemicals; MW=18 kDa) of 0.0087500875 μg/mL range was prepared in 100 mM HEPES, 0.005% BSA pH 7.2. Binding was carried out by adding 100 μL of this CD154 dilution/well and incubating at RT in the presence of test compounds (or blank as negative control). After incubation, the plates were washed with Washing Solution and blotted dry. Bound CD154 was detected with 200 μL/well of secondary antibody mAb ANTI-FLAG M2—Peroxidase Conjugate (anti-FLAG M2-peroxidase HRP conjugate; Sigma-Aldrich) diluted 1:40,000 in Washing Solution. After incubation, the plates were washed and blotted dry. 200 μL/well of the HR-Peroxidase substrate TMB (3,3′,5,5′-tetramethylbenzidine; Sigma-Aldrich) were added, and the plates were incubated for approximately 30 minutes in the dark. The reaction was stopped with 0.5 M H2SO4 and read at 450 nm. All conditions were tested in at least three independent experiments in duplicate or triplicate per plates. Data were normalized and fitted with standard log inhibitor vs. response models using GraphPad Prism 5 to establish median inhibitory ICso values.
A representative result using the monoclonal anti-human CD154 antibody (R&D Systems, monoclonal anti-human CD40 ligand/TNFSF5 antibody, MAB617; MW≈150 kDa used) as positive control is shown in FIG. 1.
Binding inhibition assays with this system provided consistent and well-reproducible results, as FIG. 1 (bottom), focusing on the concentration range of their activities, illustrates. […] The effect of DMSO, which was used as the diluting solvent for the non-water-soluble compounds and is a standard solvent in HTS assays, on the integrity of the assay has been examined. DMSO concentrations above 10% interfere with the binding assay, but concentrations below 3% have no effect. […] Because 5 or 10 mM stock solutions were used, all IC50 values below 250 μM can be considered as unaffected by DMSO.

human TNF-R1/TNFα [2] = target: human TNF-R1/TNFα (Homo sapiens, UniProt P01375+P19438); assay: Specificity test: human TNF-R1/TNFα binding inhibition assay; settings: for pIC50: cell-free binding, read-out: Human TNFR1/TNFα IC50; for Human TNFR1/TNFα log IC50: log of IC50, cell-free binding
human TNF-R1/TNFα (Homo sapiens, UniProt P01375+P19438), sequence (P01375 77-233 limits assumed): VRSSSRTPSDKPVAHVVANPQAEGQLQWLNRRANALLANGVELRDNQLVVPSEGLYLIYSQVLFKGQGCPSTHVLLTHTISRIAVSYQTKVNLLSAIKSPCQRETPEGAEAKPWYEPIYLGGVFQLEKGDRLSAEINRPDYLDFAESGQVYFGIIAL
human TNF-R1/TNFα (Homo sapiens, UniProt P01375+P19438), sequence (P19438 30-211 limits assumed): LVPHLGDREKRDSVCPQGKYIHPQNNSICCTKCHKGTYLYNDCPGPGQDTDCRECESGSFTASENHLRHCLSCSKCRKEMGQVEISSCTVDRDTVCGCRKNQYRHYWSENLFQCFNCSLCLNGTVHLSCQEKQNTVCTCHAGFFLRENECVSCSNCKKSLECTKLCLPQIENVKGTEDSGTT
From the text: (§1) A main concern for the therapeutic applicability of these compounds and of small molecule PPI inhibitors in general is related to their ability to achieve some acceptable degree of selectivity/specificity for the PPI of interest. To identify compounds that show acceptable specificity for the CD40/CD154 system, their ability to inhibit the TNF-R1/TNF-α PPI was investigated since this is particularly relevant as CD154 is part of the TNF superfamily. The experimental setup used was very similar to the one described in Example 1, but using plate-coated TNF-R1 and TNF-α as ligand (with a corresponding anti-TNF-α mAb as positive control). The concentration of TNF-R1 and TNF-α used were 0.6 μg/mL and 0.02 μg/mL, respectively.

CD40 = target: T3, CD40 (Homo sapiens, UniProt P25942); assay: Identification of binding partner: binding to CD40 (pre-incubation, wash-out); settings: compound incubated 1 h with CD40, washed, then CD154 added
T3 construct: purchased Alexis Biochemicals
T3 sequence (P25942 21-193 limits assumed): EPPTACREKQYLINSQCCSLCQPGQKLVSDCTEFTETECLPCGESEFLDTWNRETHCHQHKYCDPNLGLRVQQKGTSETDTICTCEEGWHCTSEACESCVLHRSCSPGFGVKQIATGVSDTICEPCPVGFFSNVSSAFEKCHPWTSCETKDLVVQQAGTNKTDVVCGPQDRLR
From the text: It is also of interest to identify whether the compounds bind to the receptor CD40 or its ligand CD154 (CD40L). The main goal is to block the CD40/CD154 costimulatory interaction to achieve altered immune response and long-term tolerance; however, it seems more desirable to achieve this by targeting CD154, which is expressed mainly on activated T cells, since this way a more specific immune suppression could be achieved then by targeting CD40. To evaluate the binding partner of the test compounds, CD40 or CD154 were incubated for one hour with increasing concentrations of the test compounds, and after a wash, their ability to still bind their corresponding protein binding partner (CD154 or CD40, respectively) was assessed using a setup similar to that described before (Example 1).
To test if compounds bind specifically to CD40, the procedure of Example 1 was followed with a modification. After blocking the plates with blocking solution and washing, 100 μL of different dilutions of the compounds were added to the wells and incubated at room temperature (RT) for 1 h to allow binding with CD40 in the absence of its CD154 ligand. The plates were then washed three times with washing solution. CD154 was then added and the amount bound was assessed as before.

human TNF-R1/TNFα [3] = assay: Specificity test: human TNF-R1/TNFα binding inhibition assay
From the text: as §1

Row | Compound | pIC50 [1] | Mouse CD40/CD154 log IC50 ([1]; log of IC50, cell-free binding) | Human CD40/CD154 IC50 (human CD40/CD154; cell-free binding) | pIC50 (human CD40/CD154; cell-free binding) | Human CD40/CD154 log IC50 (human CD40/CD154) | pIC50 (human TNF-R1/TNFα [2]) | Human TNFR1/TNFα log IC50 (human TNF-R1/TNFα [2]) | IC50 ([1]; log of IC50, cell-free binding, read-out: Mouse CD40/CD154 log IC50 (converted)) | IC50 (human CD40/CD154; cell-free binding, read-out: Human CD40/CD154 IC50 (ug/mL) (converted)) | Binding to CD40 (CD40) | Specificity (human TNF-R1/TNFα [3]) | Inhibitory activity for all interactions tested (human TNF-R1/TNFα [3]; all interactions tested (CD40/CD154, TNF-R1/TNF-α))
1 | Cc1cc(S(=O)(=O)[O-])ccc1N=Nc1ccc(N=Nc2c(O)ccc3cccc(S(=O)(=O)[O-])c23)c(C)c1.[Na+].[Na+] [Crocein scarlet 7B, crocein scarlet 7B] | 4.86 | −4.86 | 3.6 µg/mL | 5.26 | −5.26 | 3.77 | −3.77 |  |  |  |  | 
2 | direct red 13 | 4.90 | −4.90 | 3.5 µg/mL | 5.26 | −5.26 | 3.67 | −3.67 |  |  |  |  | 
3 | O=C(Nc1ccc2c(O)c(N=Nc3ccc(N=Nc4ccc(S(=O)(=O)[O-])cc4)cc3)c(S(=O)(=O)[O-])cc2c1)c1ccccc1.[Na+].[Na+] [Direct red 81, direct red 81] | 4.47 | −4.47 | 6.9 µg/mL | 4.87 | −4.87 | < 3.00 | >−3.0 |  |  |  |  | 
4 | direct fast red B | 4.78 | −4.78 | 5.7 µg/mL | 4.85 | −4.86 | 2.67 | −2.67 |  |  |  |  | 
5 | O=C(Nc1ccc(C(=O)Nc2ccc(C(=O)Nc3ccc(S(=O)(=O)O)c4cc(S(=O)(=O)O)cc(S(=O)(=O)O)c34)cc2)cc1)Nc1ccc(C(=O)Nc2ccc(C(=O)Nc3ccc(S(=O)(=O)O)c4cc(S(=O)(=O)O)cc(S(=O)(=O)O)c34)cc2)cc1 [NF279] | 5.64 |  |  | 5.33 |  | 3.36 |  | 2.24 µM | 5.2 µM |  |  | 
6 | O.O=C([O-])c1ccccc1-c1c2cc(I)c(=O)c(I)c-2oc2c(I)c([O-])c(I)cc12.[Na+].[Na+] [Erythrosin B (FD&C red 3), Erythrosin B, reference compound] | 5.23 | −5.23 | 2.0 µg/mL | 5.72 | −5.72 | 5.05 | −5.04 |  |  | ubiquitous binder | nonspecific promiscuous inhibitor | ~10 µM
7 | Nc1ccc2cc(S(=O)(=O)[O-])cc(O)c2c1N=Nc1ccc(NC(=O)Nc2ccc(N=Nc3c(N)ccc4cc(S(=O)(=O)[O-])cc(O)c34)c(S(=O)(=O)[O-])c2)cc1S(=O)(=O)[O-].[Na+].[Na+].[Na+].[Na+] [Direct red 75 (chlorazol fast pink), direct red 75] | 5.13 | −5.13 | 4.9 µg/mL | 5.32 | −5.32 | 3.49 | −3.49 |  |  |  |  | 
8 | O=C(Nc1ccc2c(O)c(N=Nc3ccc(N=Nc4ccc(S(=O)(=O)[O-])cc4)cc3S(=O)(=O)[O-])c(S(=O)(=O)[O-])cc2c1)Nc1ccc2c(O)c(N=Nc3ccc(N=Nc4ccc(S(=O)(=O)[O-])cc4)cc3S(=O)(=O)[O-])c(S(=O)(=O)[O-])cc2c1.[Na+].[Na+].[Na+].[Na+].[Na+].[Na+] [Direct red 80, direct red 80] | 5.23 | −5.23 | 1.9 µg/mL | 5.74 | −5.73 | 2.84 | −2.85 |  |  |  |  | 
